From PubChem BioAssay (NCI)
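GI50 = concentration required for 50% inhibition of growth. The concentration for full growth arrest is given as TGI.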

Key:
Test in all cases: NCI tumour cell line growth inhibition, 384-well format
SK-MEL-2 melanoma = test system: SK-MEL-2 melanoma
SW-620 colon = test system: SW-620 colon
NCI-H522 lung = test system: NCI-H522 lung
HOP-92 NSCLC = test system: HOP-92 NSCLC
BT-549 breast = test system: BT-549 breast
RPMI-8226 leukemia = test system: RPMI-8226 leukemia
SK-MEL-28 melanoma = test system: SK-MEL-28 melanoma
OVCAR-3 ovarian = test system: OVCAR-3 ovarian
HS 578T breast = test system: HS 578T breast
HCC-2998 colon = test system: HCC-2998 colon
A549 NSCLC = test system: A549 NSCLC
SNB-19 CNS = test system: SNB-19 CNS
OVCAR-4 ovarian = test system: OVCAR-4 ovarian
HCT-15 colon = test system: HCT-15 colon
MDA-MB-435 melanoma = test system: MDA-MB-435 melanoma
SK-MEL-5 melanoma = test system: SK-MEL-5 melanoma
IGROV1 ovarian = test system: IGROV1 ovarian
RXF 393 renal = test system: RXF 393 renal
MCF7 breast = test system: MCF7 breast
NCI-H226 lung = test system: NCI-H226 lung
COLO 205 colon = test system: COLO 205 colon
HCT-116 colon = test system: HCT-116 colon
CAKI-1 renal = test system: CAKI-1 renal
UACC-62 melanoma = test system: UACC-62 melanoma
LOX IMVI melanoma = test system: LOX IMVI melanoma
UACC-257 melanoma = test system: UACC-257 melanoma
TK-10 renal = test system: TK-10 renal
UO-31 renal = test system: UO-31 renal
SF-539 CNS = test system: SF-539 CNS
SN12C renal = test system: SN12C renal
MOLT-4 leukemia = test system: MOLT-4 leukemia
SF-295 CNS = test system: SF-295 CNS
MALME-3M melanoma = test system: MALME-3M melanoma
ACHN renal = test system: ACHN renal
NCI-H23 lung = test system: NCI-H23 lung
SK-OV-3 ovarian = test system: SK-OV-3 ovarian
NCI-H460 NSCLC = test system: NCI-H460 NSCLC
U251 glioblastoma = test system: U251 glioblastoma
HOP-62 NSCLC = test system: HOP-62 NSCLC
K-562 leukemia = test system: K-562 leukemia
DU-145 prostate = test system: DU-145 prostate
786-0 renal = test system: 786-0 renal
HL-60(TB) leukemia = test system: HL-60(TB) leukemia
KM12 colon = test system: KM12 colon
EKVX NSCLC = test system: EKVX NSCLC
M14 melanoma = test system: M14 melanoma
A498 renal = test system: A498 renal
OVCAR-5 ovarian = test system: OVCAR-5 ovarian
CCRF-CEM leukemia = test system: CCRF-CEM leukemia
MDA-MB-231 breast = test system: MDA-MB-231 breast
PC-3 prostate = test system: PC-3 prostate
OVCAR-8 ovarian = test system: OVCAR-8 ovarian
HT29 colon = test system: HT29 colon
SF-268 CNS = test system: SF-268 CNS
T-47D breast = test system: T-47D breast
NCI-H322M lung = test system: NCI-H322M lung
NCI/ADR-RES ovarian = test system: NCI/ADR-RES ovarian
MDA-MB-468 breast = test system: MDA-MB-468 breast
SNB-75 CNS = test system: SNB-75 CNS

Cc1ccccc1C(C(=O)NC1CCCCC1)N(C(=O)CNc1ncccc1F)c1cccc(F)c1 (stereo not drawn)
GI50 (SK-MEL-2 melanoma): > 100 µM | TGI (SK-MEL-2 melanoma): > 100 µM | GI50 (SW-620 colon): > 100 µM | TGI (SW-620 colon): > 100 µM | GI50 (NCI-H522 lung): > 100 µM | TGI (NCI-H522 lung): > 100 µM | GI50 (HOP-92 NSCLC): > 100 µM | TGI (HOP-92 NSCLC): > 100 µM | GI50 (BT-549 breast): > 100 µM | TGI (BT-549 breast): > 100 µM | GI50 (RPMI-8226 leukemia): > 100 µM | TGI (RPMI-8226 leukemia): > 100 µM | GI50 (SK-MEL-28 melanoma): > 100 µM | TGI (SK-MEL-28 melanoma): > 100 µM | GI50 (OVCAR-3 ovarian): > 100 µM | TGI (OVCAR-3 ovarian): > 100 µM | GI50 (HS 578T breast): > 100 µM | TGI (HS 578T breast): > 100 µM | GI50 (HCC-2998 colon): > 100 µM | TGI (HCC-2998 colon): > 100 µM | GI50 (A549 NSCLC): > 100 µM | TGI (A549 NSCLC): > 100 µM | GI50 (SNB-19 CNS): > 100 µM | TGI (SNB-19 CNS): > 100 µM | GI50 (OVCAR-4 ovarian): > 100 µM | TGI (OVCAR-4 ovarian): > 100 µM | GI50 (HCT-15 colon): > 100 µM | TGI (HCT-15 colon): > 100 µM | GI50 (MDA-MB-435 melanoma): > 100 µM | TGI (MDA-MB-435 melanoma): > 100 µM | GI50 (SK-MEL-5 melanoma): > 100 µM | TGI (SK-MEL-5 melanoma): > 100 µM | GI50 (IGROV1 ovarian): > 100 µM | TGI (IGROV1 ovarian): > 100 µM | GI50 (RXF 393 renal): > 100 µM | TGI (RXF 393 renal): > 100 µM | GI50 (MCF7 breast): > 100 µM | TGI (MCF7 breast): > 100 µM | GI50 (NCI-H226 lung): > 100 µM | TGI (NCI-H226 lung): > 100 µM | GI50 (COLO 205 colon): > 100 µM | TGI (COLO 205 colon): > 100 µM | GI50 (HCT-116 colon): > 100 µM | TGI (HCT-116 colon): > 100 µM | GI50 (CAKI-1 renal): > 100 µM | TGI (CAKI-1 renal): > 100 µM | GI50 (UACC-62 melanoma): > 100 µM | TGI (UACC-62 melanoma): > 100 µM | GI50 (LOX IMVI melanoma): > 100 µM | TGI (LOX IMVI melanoma): > 100 µM | GI50 (UACC-257 melanoma): > 100 µM | TGI (UACC-257 melanoma): > 100 µM | GI50 (TK-10 renal): > 100 µM | TGI (TK-10 renal): > 100 µM | GI50 (UO-31 renal): > 100 µM | TGI (UO-31 renal): > 100 µM | GI50 (SF-539 CNS): > 100 µM | TGI (SF-539 CNS): > 100 µM | GI50 (SN12C renal): > 100 µM | TGI (SN12C renal): > 100 µM | GI50 (MOLT-4 leukemia): > 100 µM | TGI (MOLT-4 leukemia): > 100 µM | GI50 (SF-295 CNS): > 100 µM | TGI (SF-295 CNS): > 100 µM | GI50 (MALME-3M melanoma): > 100 µM | TGI (MALME-3M melanoma): > 100 µM | GI50 (ACHN renal): > 100 µM | TGI (ACHN renal): > 100 µM | GI50 (NCI-H23 lung): > 100 µM | TGI (NCI-H23 lung): > 100 µM | GI50 (SK-OV-3 ovarian): > 100 µM | TGI (SK-OV-3 ovarian): > 100 µM | GI50 (NCI-H460 NSCLC): > 100 µM | TGI (NCI-H460 NSCLC): > 100 µM | GI50 (U251 glioblastoma): > 100 µM | TGI (U251 glioblastoma): > 100 µM | GI50 (HOP-62 NSCLC): > 100 µM | TGI (HOP-62 NSCLC): > 100 µM | GI50 (K-562 leukemia): > 100 µM | TGI (K-562 leukemia): > 100 µM | GI50 (DU-145 prostate): > 100 µM | TGI (DU-145 prostate): > 100 µM | GI50 ([…]-0 renal): > 100 µM | TGI (786-0 renal): > 100 µM | GI50 (HL-60(TB) leukemia): > 100 µM | TGI (HL-60(TB) leukemia): > 100 µM | GI50 (KM12 colon): > 100 µM | TGI (KM12 colon): > 100 µM | GI50 (EKVX NSCLC): > 100 µM | TGI (EKVX NSCLC): > 100 µM | GI50 (M14 melanoma): > 100 µM | TGI (M14 melanoma): > 100 µM | GI50 (A498 renal): > 100 µM | TGI (A498 renal): > 100 µM | GI50 (OVCAR-5 ovarian): > 100 µM | TGI (OVCAR-5 ovarian): > 100 µM | GI50 (CCRF-CEM leukemia): > 100 µM | TGI (CCRF-CEM leukemia): > 100 µM | GI50 (MDA-MB-231 breast): > 100 µM | TGI (MDA-MB-231 breast): > 100 µM | GI50 (PC-3 prostate): > 100 µM | TGI (PC-3 prostate): > 100 µM | GI50 (OVCAR-8 ovarian): > 100 µM | TGI (OVCAR-8 ovarian): > 100 µM | GI50 (HT29 colon): > 100 µM | TGI (HT29 colon): > 100 µM | GI50 (SF-268 CNS): > 100 µM | TGI (SF-268 CNS): > 100 µM | GI50 (T-47D breast): > 100 µM | TGI (T-47D breast): > 100 µM | GI50 (NCI-H322M lung): > 100 µM | TGI (NCI-H322M lung): > 100 µM | GI50 (NCI/ADR-RES ovarian): > 100 µM | TGI (NCI/ADR-RES ovarian): > 100 µM | GI50 (MDA-MB-468 breast): > 100 µM | TGI (MDA-MB-468 breast): > 100 µM | GI50 (SNB-75 CNS): > 100 µM | TGI (SNB-75 CNS): > 100 µM
